Data published in paper PMC9136576 (Acta Pharmaceutica Sinica. B, 2021).

Key:
Experiment in all cases: H2O2 reduction peroxidase assay
Assay type in all cases: biochemical
Conditions in all cases: covalent; […] protein, […] H2O2, […] min preincubation, room temperature
rhPRDX6 = target: T1, rhPRDX6 (Homo sapiens, UniProt P30041)
T1 sequence (P30041 2-224): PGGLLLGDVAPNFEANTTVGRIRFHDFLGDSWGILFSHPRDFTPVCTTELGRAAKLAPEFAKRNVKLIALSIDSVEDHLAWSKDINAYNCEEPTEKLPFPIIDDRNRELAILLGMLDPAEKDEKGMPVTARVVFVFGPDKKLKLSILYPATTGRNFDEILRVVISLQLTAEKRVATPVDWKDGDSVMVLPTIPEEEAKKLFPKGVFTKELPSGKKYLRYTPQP

rhPRDX4 = target: T2, rhPRDX4 (Homo sapiens, UniProt Q13162)
T2 sequence (Q13162 38-271): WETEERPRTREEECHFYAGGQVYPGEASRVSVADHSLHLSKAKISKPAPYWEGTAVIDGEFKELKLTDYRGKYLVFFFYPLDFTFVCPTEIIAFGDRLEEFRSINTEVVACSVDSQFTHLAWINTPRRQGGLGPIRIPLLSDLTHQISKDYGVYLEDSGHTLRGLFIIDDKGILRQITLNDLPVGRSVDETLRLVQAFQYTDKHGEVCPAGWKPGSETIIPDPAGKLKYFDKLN

rhPRDX2 = target: T3, rhPRDX2 (Homo sapiens, UniProt P32119)
T3 sequence (P32119 2-198): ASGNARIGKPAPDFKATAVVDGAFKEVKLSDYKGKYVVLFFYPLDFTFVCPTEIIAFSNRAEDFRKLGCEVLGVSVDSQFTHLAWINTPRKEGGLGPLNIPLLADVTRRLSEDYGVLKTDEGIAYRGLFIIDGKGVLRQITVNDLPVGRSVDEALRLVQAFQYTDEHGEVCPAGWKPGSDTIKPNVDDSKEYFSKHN

In the case of `CC1=C(O)C(=O)C=C2C1=CC=C1[C@@]2(C)CC[C@@]2(C)[C@@H]3C[C@](C)(C(=O)O)CC[C@]3(C)CC[C@]12C` [celastrol], the “% inhibition at 5 μmol/L” value (rhPRDX6) is reported as “celastrol could significantly suppress the peroxidase activity of rhPRDXs for H2O2 reduction”, the “% inhibition at 5 μmol/L” value (rhPRDX4) is reported as “celastrol could significantly suppress the peroxidase activity of rhPRDXs for H2O2 reduction” and the “% inhibition at 5 μmol/L” value (rhPRDX2) is reported as “celastrol could significantly suppress the peroxidase activity of rhPRDXs for H2O2 reduction”.
